PMC11289669, “BAR502/fibrate conjugates: synthesis, biological evaluation and metabolic profile” (Frontiers in Chemistry, 2024)

Key:
FXR = biological target: T1, FXR (Homo sapiens, UniProt Q96RI1); assay: FXR transactivation (luciferase reporter) assay in HepG2 cells; type: cell-based; details: HepG2 cells
T1 construct: expressed in transfected cells; host or cells: HepG2 (the text says EC50 dose-response curves were run in HEK-293T)
T1 sequence (Q96RI1 1-486): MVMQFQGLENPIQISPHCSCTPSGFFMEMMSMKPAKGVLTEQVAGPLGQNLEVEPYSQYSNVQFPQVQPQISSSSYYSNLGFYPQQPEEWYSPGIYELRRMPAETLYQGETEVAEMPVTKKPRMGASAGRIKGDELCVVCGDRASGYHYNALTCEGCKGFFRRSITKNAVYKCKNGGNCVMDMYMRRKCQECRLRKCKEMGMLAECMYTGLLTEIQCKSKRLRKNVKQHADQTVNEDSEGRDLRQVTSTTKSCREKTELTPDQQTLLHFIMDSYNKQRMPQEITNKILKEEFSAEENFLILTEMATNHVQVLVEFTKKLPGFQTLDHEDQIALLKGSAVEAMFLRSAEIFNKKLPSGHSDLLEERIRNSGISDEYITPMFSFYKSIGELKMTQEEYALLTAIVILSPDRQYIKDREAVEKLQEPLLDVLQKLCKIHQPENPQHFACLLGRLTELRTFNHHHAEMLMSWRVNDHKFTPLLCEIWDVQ
T1 sequence (P19793 1-462 partner): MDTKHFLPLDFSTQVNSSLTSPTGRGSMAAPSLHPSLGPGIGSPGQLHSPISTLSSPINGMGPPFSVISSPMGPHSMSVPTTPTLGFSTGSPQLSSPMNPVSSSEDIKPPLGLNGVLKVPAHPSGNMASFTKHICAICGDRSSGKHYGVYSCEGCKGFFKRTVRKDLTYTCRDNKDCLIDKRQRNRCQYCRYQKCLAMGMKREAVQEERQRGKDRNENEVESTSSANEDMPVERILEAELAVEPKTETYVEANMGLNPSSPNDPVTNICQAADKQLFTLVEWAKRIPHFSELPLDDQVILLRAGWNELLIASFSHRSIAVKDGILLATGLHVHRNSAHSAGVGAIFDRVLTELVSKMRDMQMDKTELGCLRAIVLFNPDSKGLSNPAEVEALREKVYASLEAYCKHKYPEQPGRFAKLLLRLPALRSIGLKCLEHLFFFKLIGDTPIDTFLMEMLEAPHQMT
Description: (§1) HepG2 and HEK-293T cells were cultured at 37 °C in minimal essential medium (MEM) and Dulbecco’s Modified Eagle Medium (DMEM) respectively, supplemented with 10% fetal bovine serum, 1% L-glutamine, 100 U/mL penicillin, and 100 μg/mL streptomycin. To investigate FXR-mediated transactivation, the HepG2 cells were transfected with 200 ng of the reporter vector p (hsp27)TK-Luc containing the FXR response element IR1 cloned from the promoter of heat shock protein 27 (hsp27), plus 100 ng pSG5-FXR, 100 ng pSG5-RXR, and 100 ng pGL4.70 Renilla. To evaluate GPBAR1 mediated transactivation, HEK-293T cells were transfected with 200 ng of human pGL4.29 (Promega), a reporter vector containing a cAMP response element (CRE) that drives the transcription of the luciferase reporter gene luc2P, with 100 ng of pCMVSPORT6-human GPBAR1, and with 100 ng of pGL4.70. At 24 h post-transfection, cells were stimulated 18 h with 10 μM TLCA (taurolithocholic acid a GPBAR1 agonist) or CDCA (FXR agonist) and compounds. To calculate the EC50 on FXR and GPBAR1, dose-response curves were performed in HEK-293T cells transfected as described above and then treated with increasing concentrations of compounds (from 0.1 to 50 µM). After treatments, cells were lysed in 100 μL of lysis buffer (25 mM Tris-phosphate, pH 7.8; 2 mM DTT; 10% glycerol; 1% Triton X-100), and 10 μL of cellular lysate was assayed for luciferase activity using the Firfly &Renilla Luciferase assay kit (Biotium). Luminescence was measured using Glomax 20/20 luminometer (Promega). Luciferase activities were assayed and normalized with Renilla activities.

U937 cells = assay: Pro-inflammatory gene expression (qRT-PCR) in LPS-activated U937 cells; type: cell-based, human; details: LPS 100 ng/mL, 18 h, compound 1 10 μM; for IL-1β mRNA expression / IL-6 mRNA expression: BAR502 and clofibrate 5 and 10 μM
Description: U937 cell line were cultured in RPMI 1640 supplemented with 10% FBS, 1% glutamine, and 1% penicillin/streptomycin and were regularly passaged to maintain exponential growth. After 24 h of starvation cells were classically activated with LPS (100 ng/mL; Sigma-Aldrich, St. Louis, MO), and exposed or not to BAR502, clofibrate and compound 1 at the concentration of 5 and 10 μM for 18 h. At the end of the experiment the cells were recovered. Total mRNA extraction from U937 and 3T3.L1 was performed using Tri-Reagent (Zymo Research) and Direct-zolTM RNA MiniPrep w/Zymo-SpinTM IIC Columns (Zymo Research, Irvine, CA). After purification from genomic DNA using DNase I (Thermo Fisher Scientific, Waltham, MA), 1 μg of RNA from each sample was reverse transcribed using Kit […] Basic (Nippon Genetics, […] 20-μL of reaction volume; 50 ng of cDNA was amplified in a 20-μL solution containing 200 nM each primer and 10 μL of PowerUpTM SYBRTM Green Master Mix (Thermo Fisher Scientific, Waltham, MA). All reactions were performed in triplicate using the following thermal cycling conditions: 3 min at 95°C, followed by 40 cycles of 95°C for 15 s, 56°C for 20 s, and 72°C for 30 s, using a QuantStudio 3 system (Applied Biosystems, Foster City, CA). The relative mRNA expression was calculated accordingly to the ΔCt method. Primers were designed using the software PRIMER3 (http://frodo.wi.mit.edu/primer3/) using published data obtained from the NCBI database. The primer used were as following (forward and reverse): hGAPDH (for […]-1β (for [NT], hIL6 (for [NT] hCXCL2 (for [NT] hTNFα; (for [NT], mAdiponectin (for […]ɤ (for [NT], mCebp (for [NT]

GPBAR1 = biological target: T2, GPBAR1 (Homo sapiens, UniProt Q8TDU6); assay: GPBAR1 transactivation (CRE-luciferase reporter) assay in HEK-293T cells; type: cell-based; details: for Emax: 18 h, read-out: GPBAR1 efficacy (% vs. TLCA); for EC50: transactivation assay, HEK-293T cells
T2 construct: expressed in transfected cells; host or cells: HEK-293T
T2 sequence (Q8TDU6 1-330): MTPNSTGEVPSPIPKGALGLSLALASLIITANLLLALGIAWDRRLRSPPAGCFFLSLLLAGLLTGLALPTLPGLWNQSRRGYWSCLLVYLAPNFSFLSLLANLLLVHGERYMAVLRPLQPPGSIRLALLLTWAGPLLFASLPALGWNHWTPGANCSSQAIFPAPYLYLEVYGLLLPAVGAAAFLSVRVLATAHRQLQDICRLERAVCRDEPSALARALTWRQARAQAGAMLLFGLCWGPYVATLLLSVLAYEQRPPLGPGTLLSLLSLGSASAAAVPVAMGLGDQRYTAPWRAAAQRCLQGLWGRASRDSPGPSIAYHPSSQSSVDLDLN
Description: as §1

[1] = transactivation on HEK-293T cells, TLCA 10 μM = 100%

Structure (SMILES) | EC50 (FXR) [nM] | IL-1β mRNA expression (U937 cells) | IL-6 mRNA expression (U937 cells) | Emax (GPBAR1; [1]) [%] | EC50 (GPBAR1) [nM] | CXCL2 mRNA expression (U937 cells) | GPBAR1 efficacy (% vs. TLCA) (GPBAR1; [1]) [%]
CC[C@H]1[C@@H](O)[C@@H]2[C@H](CC[C@]3(C)[C@@H]([C@H](C)CCO)CC[C@@H]23)[C@@]2(C)CC[C@@H](O)C[C@@H]12 [BAR502, 6α-ethyl-3α,7α-dihydroxy-24-nor-5β-cholan-23-ol] | 2000 ± 200 | reducing the expression of pro-inflammatory cytokines | reducing the expression of pro-inflammatory cytokines | 79.5 ± 11.8 | 400 ± 100 | – | –
CC[C@@H]1C2C[C@H](O)CC[C@]2(C)C2CC[C@@]3(C)C(CC[C@@H]3[C@H](C)CCOC(=O)C(C)(C)Oc3ccc(Cl)cc3)C2[C@@H]1O (stereo partly drawn) [Compound 1] | 2800 ± 10 | greatest efficacy in reducing the expression | greatest efficacy in reducing the expression | 145 | 370 ± 20 | the only compound also reducing the expression | 145 ± 10
